Source: patent publication US11596165B2, “Compositions, their use, and methods for their formation” (Cambridge Glycoscience Ltd, priority 2018, dated 2023)

Columns and labels:
[1] = Hygroscopicity of oligosaccharide powder at 25° C. in 100% humidity; format: physicochemical; details: 5 g, 10 hours at 25° C. in 100% humidity
Description: The compositions are to be used in a wide range of foodstuff, cosmetic, or nutraceutical applications, therefore the required hygroscopicity for each application can vary. The aim of this example was to test if hygroscopicity can be adapted by altering the oligosaccharide compositions. • 1. 5 g of oligosaccharide compositions (cellobiose, 4:1 cellobiose:xylo-oligosaccharide, 3:2 cellobiose:xylo-oligosaccharide, 2:3 cellobiose:xylo-oligosaccharide, 1:4 cellobiose:xylo-oligosaccharide, xylo-oligosaccharide) were incubated for 10 hours at 25° C. in 100% humidity. • 2.

[2] = Solubility of cellobiose when combined with xylo-oligosaccharides; format: physicochemical; details: 20-320 mg/mL, vortexed 30 seconds, in the presence of half or the same concentration of xylo-oligosaccharides (e.g., at 80 mg/mL)
Procedure: 1. Solutions/suspensions of cellobiose at concentrations from 20-320 mg/mL were vortexed for 30 seconds alone (FIG. 4, panel a), in the presence of half the concentration of xylo-oligosaccharides (FIG. 4, panel b), or the same concentration of xylo-oligosaccharides (FIG. 4, panel c).

SMILES: O=C[C@H](O)[C@@H](O)[C@H](O[C@@H]1O[C@H](CO)[C@@H](O)[C@H](O)[C@H]1O)[C@H](O)CO [cellobiose]
- water uptake [1]: effectively resisted water uptake
- dissolution of cellobiose [2]: enabled more readily at higher concentrations
